Measurements taken from the supplement of paper PMC10331698.
± gives the standard deviation of the averaged measurements.

Columns and labels:
Experiment in all cases: LOEC (log10 uM (lowest observed effect concentration))
[1] = compound: O=C(O)C(F)(F)C(F)(F)C(F)(F)C(F)(F)C(F)(F)C(F)(F)C(F)(F)C(F)(F)Cl [9-Chloro-perfluorononanoic acid]
Method: (§1)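 BioMAP Diversity Plus panel in human primary cell co-cultures, 4 concentrations in duplicate blinded samples. Responses are log10 fold change versus DMSO control, processed with tcpl v2.1.0. A hit is called when responses at any concentration exceed the cutoff (the larger of 3*bmad or log10(1.2)); the lowest observed effect concentration (modl_ga, log10 uM) is reported for hits.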

[2] = compound: O=C(O)C(F)(F)C(F)(F)C(F)(F)C(F)(F)C(F)(F)C(F)(F)C(F)(F)C(F)(F)C(F)(F)C(F)(F)C(F)(F)C(F)(F)F [Perfluorotridecanoic acid]
Method: as §1

[3] = compound: N=C(N)C(F)(F)C(F)(F)C(F)(F)C(F)(F)C(F)(F)C(F)(F)C(F)(F)F [Perfluorooctanamidine]
Method: as §1

[4] = compound: CNS(=O)(=O)C(F)(F)C(F)(F)C(F)(F)C(F)(F)C(F)(F)C(F)(F)C(F)(F)C(F)(F)F [N-Methylperfluorooctanesulfonamide]
Method: as §1

[5] = compound: O=C(O)C(F)(F)OC(F)(F)C(F)(F)OC(F)(F)C(F)(F)C(F)(F)C(F)(F)F [Perfluoro-3,6-dioxadecanoic acid]
Method: as §1

[6] = compound: O=S(=O)(O)C(F)(F)C(F)(F)C(F)(F)C(F)(F)C(F)(F)C(F)(F)C(F)(F)C(F)(F)F [Perfluorooctanesulfonic acid]
Method: as §1

[7] = compound: O=S(=O)(O)C(F)(F)C(F)(F)C(F)(F)C(F)(F)C(F)(F)C(F)(F)C(F)(F)C(F)(F)F [Potassium perfluorooctanesulfonate]
Method: as §1

[8] = compound: O=P(O)(O)CCC(F)(F)C(F)(F)C(F)(F)C(F)(F)C(F)(F)C(F)(F)C(F)(F)C(F)(F)F [((Perfluorooctyl)ethyl)phosphonic acid]
Method: as §1

[9] = compound: C=CC(=O)OCCC(F)(F)C(F)(F)C(F)(F)C(F)(F)F [2-(Perfluorobutyl)ethyl acrylate]
Method: as §1

[10] = compound: Cn1cnc([N+](=O)[O-])c1Sc1ncnc2[nH]cnc12 [Azathioprine]
Method: as §1

IMphg SRB down
LOEC (log10 uM) [1]: 1.78

IMphg VCAM1 down
LOEC (log10 uM) [2]: 1.22 ± 0.37
LOEC (log10 uM) [1]: 1.78
LOEC (log10 uM) [3]: 1.78

KF3CT ICAM1 down
LOEC (log10 uM) [1]: 1.78

KF3CT IL1a down
LOEC (log10 uM) [2]: 1.22 ± 0.37
LOEC (log10 uM) [1]: 1.78

KF3CT IL8 down
LOEC (log10 uM) [4]: 1.3
LOEC (log10 uM) [5]: 1.78
LOEC (log10 uM) [1]: 1.78

KF3CT IP10 down
LOEC (log10 uM) [5]: 1.78
LOEC (log10 uM) [1]: 1.78

KF3CT MCP1 down
LOEC (log10 uM) [1]: 1.78

KF3CT MIG down
LOEC (log10 uM) [1]: 1.78

KF3CT PAI1 down
LOEC (log10 uM) [6]: 1.78
LOEC (log10 uM) [7]: 1.78
LOEC (log10 uM) [1]: 1.3

KF3CT PAI1 up
LOEC (log10 uM) [4]: 0.801 ± 0.71

KF3CT SRB down
LOEC (log10 uM) [1]: 1.78

KF3CT TIMP2 down
LOEC (log10 uM) [1]: 1.78

KF3CT uPA down
LOEC (log10 uM) [1]: 1.78

LPS CD40 down
LOEC (log10 uM) [8]: 1.78
LOEC (log10 uM) [9]: 1.78
LOEC (log10 uM) [3]: 1.78

LPS CD69 down
LOEC (log10 uM) [5]: 1.78
LOEC (log10 uM) [1]: 1.78
LOEC (log10 uM) [3]: 1.78

LPS IL8 up
LOEC (log10 uM) [1]: 1.54 ± 0.34

LPS MCP1 down
LOEC (log10 uM) [1]: 1.78

LPS MCSF down
LOEC (log10 uM) [2]: 1.48
LOEC (log10 uM) [8]: 1.78
LOEC (log10 uM) [10]: 1.48

LPS MCSF up
LOEC (log10 uM) [1]: 1.78

LPS PGE2 down
LOEC (log10 uM) [5]: 1.3
LOEC (log10 uM) [1]: 1.78

LPS SRB down
LOEC (log10 uM) [1]: 1.78

LPS TNFa down
LOEC (log10 uM) [10]: 1.48

LPS Thrombomodulin up
LOEC (log10 uM) [1]: 1.78

LPS VCAM1 down
LOEC (log10 uM) [10]: 1.22 ± 0.37
LOEC (log10 uM) [5]: 1.78
LOEC (log10 uM) [9]: 1.78
LOEC (log10 uM) [3]: 1.78

MyoF ACTA1 down
LOEC (log10 uM) [1]: 1.78

MyoF CollagenI down
LOEC (log10 uM) [2]: 1.48
LOEC (log10 uM) [5]: 1.78
LOEC (log10 uM) [1]: 1.3

MyoF CollagenIII down
LOEC (log10 uM) [5]: 1.78
LOEC (log10 uM) [1]: 1.3

MyoF CollagenIV up
LOEC (log10 uM) [4]: 0.845
LOEC (log10 uM) [5]: 1.78
LOEC (log10 uM) [1]: 1.3

MyoF MMP1 up
LOEC (log10 uM) [1]: 1.78

MyoF PAI1 down
LOEC (log10 uM) [1]: 1.78

MyoF SRB down
LOEC (log10 uM) [1]: 1.78

MyoF TIMP1 down
LOEC (log10 uM) [1]: 1.78

MyoF TIMP1 up
LOEC (log10 uM) [5]: 1.3

MyoF VCAM1 down
LOEC (log10 uM) [1]: 1.54 ± 0.34

SAg CD38 down
LOEC (log10 uM) [1]: 1.78
LOEC (log10 uM) [9]: 1.78

SAg CD40 down
LOEC (log10 uM) [2]: 1.22 ± 0.37
LOEC (log10 uM) [8]: 1.78
LOEC (log10 uM) [1]: 1.78
LOEC (log10 uM) [9]: 1.78

SAg CD69 down
LOEC (log10 uM) [10]: 1.48
LOEC (log10 uM) [1]: 1.78
LOEC (log10 uM) [9]: 1.78

SAg Eselectin down
LOEC (log10 uM) [10]: 1.48
LOEC (log10 uM) [9]: 1.78
